Measured values reported in ChEMBL document CHEMBL2346651, “Structure-activity relationship study of tachykinin peptides for the development of novel neurokinin-3 receptor selective agonists” (Bioorg Med Chem, 2013).
Residues, ends and D or L forms follow the SMILES beside them.

Experiments:
[1] = molecular target: T1, Neuromedin-K receptor (Homo sapiens, UniProt P29371); assay: Agonist activity at NK3R (unknown origin) transfected in CHO cells assessed as calcium influx […]; type: functional, cell-based
T1 sequence (P29371 whole entry): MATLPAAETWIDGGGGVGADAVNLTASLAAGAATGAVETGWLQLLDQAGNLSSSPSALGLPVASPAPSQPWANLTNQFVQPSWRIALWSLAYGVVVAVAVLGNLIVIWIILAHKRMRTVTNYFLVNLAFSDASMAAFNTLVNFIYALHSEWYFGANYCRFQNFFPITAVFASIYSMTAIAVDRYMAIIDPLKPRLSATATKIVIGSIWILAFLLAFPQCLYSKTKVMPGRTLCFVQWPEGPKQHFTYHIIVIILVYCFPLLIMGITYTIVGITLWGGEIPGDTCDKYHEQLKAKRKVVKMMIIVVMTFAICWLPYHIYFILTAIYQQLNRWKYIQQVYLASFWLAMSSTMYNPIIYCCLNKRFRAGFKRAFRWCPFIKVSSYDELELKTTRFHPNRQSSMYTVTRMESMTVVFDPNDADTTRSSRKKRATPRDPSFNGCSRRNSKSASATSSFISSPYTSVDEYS

[2] = molecular target: Substance-P receptor (Homo sapiens) (UniProt P25103); assay: Displacement of [125I]-BH-SP from NK1R (unknown origin) transfected in CHO cells at 10 uM by gamma counting analysis; type: cell-based
[3] = molecular target: T2, Substance-K receptor (Homo sapiens) (UniProt P21452); assay: Displacement of [125I]-NKA from NK2R (unknown origin) transfected in CHO cells at 10 uM by gamma counting analysis; type: cell-based
T2 sequence (whole entry): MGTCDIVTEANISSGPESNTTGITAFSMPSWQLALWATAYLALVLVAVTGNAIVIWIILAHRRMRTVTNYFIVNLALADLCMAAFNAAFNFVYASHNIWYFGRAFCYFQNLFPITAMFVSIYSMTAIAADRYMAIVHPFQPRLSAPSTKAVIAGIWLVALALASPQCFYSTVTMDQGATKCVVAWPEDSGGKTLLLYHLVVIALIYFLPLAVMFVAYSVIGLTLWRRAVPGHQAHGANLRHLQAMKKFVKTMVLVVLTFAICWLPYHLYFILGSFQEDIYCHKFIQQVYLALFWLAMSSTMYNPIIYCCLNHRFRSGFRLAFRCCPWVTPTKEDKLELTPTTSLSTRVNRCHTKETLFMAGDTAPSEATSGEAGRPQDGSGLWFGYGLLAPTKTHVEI

[4] = molecular target: T1, Neuromedin-K receptor; assay: Displacement of ([125I]-His3, MePhe7)-NKB from NK3R (unknown origin) transfected in CHO cells by gamma counting analysis; type: cell-based

Substance-P receptor (Homo sapiens), sequence (P25103 whole entry): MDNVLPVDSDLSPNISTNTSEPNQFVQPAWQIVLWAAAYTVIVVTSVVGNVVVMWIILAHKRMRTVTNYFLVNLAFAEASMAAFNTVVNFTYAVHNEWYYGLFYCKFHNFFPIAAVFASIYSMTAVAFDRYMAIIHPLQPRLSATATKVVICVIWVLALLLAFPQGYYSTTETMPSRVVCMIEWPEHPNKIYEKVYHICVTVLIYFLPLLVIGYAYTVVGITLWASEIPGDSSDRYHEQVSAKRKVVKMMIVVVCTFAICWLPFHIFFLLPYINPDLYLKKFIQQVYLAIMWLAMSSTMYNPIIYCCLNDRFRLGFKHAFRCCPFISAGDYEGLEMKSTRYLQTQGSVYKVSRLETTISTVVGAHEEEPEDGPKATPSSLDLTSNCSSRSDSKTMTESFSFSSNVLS

Compound	EC50 [1]	inhibition [2]	inhibition [3]	IC50 [4]
CSCC[C@H](NC(=O)[C@H](CC(C)C)NC(=O)CNC(=O)[C@H](Cc1ccccc1)N(C)C(=O)[C@H](Cc1ccccc1)NC(=O)[C@H](CC(N)=O)NC(=O)[C@H](CC(=O)O)NC(=O)[C@H](Cc1cnc[nH]1)NC(=O)[C@H](CCSC)NC(=O)[C@@H](N)CC(=O)O)C(N)=O (HELM PEPTIDE1{D.M.H.D.N.F.[meF].G.L.M.[am]}$$$$V2.0)	0.036 nM	< 10%	10%	18 nM
CSCC[C@H](NC(=O)[C@H](CC(C)C)NC(=O)CNC(=O)[C@H](Cc1ccccc1)N(C)C(=O)[C@H](Cc1ccccc1)NC(=O)[C@H](CC(=O)O)NC(=O)[C@H](CC(=O)O)NC(=O)[C@@H]1CCCN1C(=O)[C@H](CCCN=C(N)N)NC(=O)[C@@H]1CCCN1C(=O)[C@@H](N)CCCCN)C(N)=O (HELM PEPTIDE1{K.P.R.P.D.D.F.[meF].G.L.M.[am]}$$$$V2.0)	5.04 nM			31 nM
CSCC[C@H](NC(=O)[C@H](CC(C)C)NC(=O)CNC(=O)[C@H](Cc1ccccc1)N(C)C(=O)[C@H](Cc1ccccc1)NC(=O)[C@H](CCCNC(=N)N)NC(=O)[C@H](CC(=O)O)NC(=O)[C@H](Cc1cnc[nH]1)NC(=O)[C@H](CCSC)NC(=O)[C@@H](N)CC(=O)O)C(N)=O (HELM PEPTIDE1{D.M.H.D.R.F.[meF].G.L.M.[am]}$$$$V2.0)		60%	62%	
CSCC[C@H](NC(=O)[C@H](CC(C)C)NC(=O)CNC(=O)[C@H](Cc1ccccc1)N(C)C(=O)[C@H](Cc1ccccc1)NC(=O)CNC(=O)[C@H](CC(=O)O)NC(=O)[C@H](Cc1cnc[nH]1)NC(=O)[C@H](CCSC)NC(=O)[C@@H](N)CC(=O)O)C(N)=O (HELM PEPTIDE1{D.M.H.D.G.F.[meF].G.L.M.[am]}$$$$V2.0)	0.036 nM	< 10%	22%	13 nM
CSCC[C@H](NC(=O)[C@H](CC(C)C)NC(=O)CNC(=O)[C@H](Cc1ccccc1)N(C)C(=O)[C@H](Cc1ccccc1)NC(=O)[C@H](CC(=O)O)NC(=O)[C@H](CC(=O)O)NC(=O)[C@H](CO)NC(=O)[C@H](CCCCN)NC(=O)[C@@H]1CCCN1C(=O)[C@@H](NC(=O)[C@@H](N)CC(=O)O)C(C)C)C(N)=O (HELM PEPTIDE1{D.V.P.K.S.D.D.F.[meF].G.L.M.[am]}$$$$V2.0)	0.085 nM	< 10%	< 10%	27 nM
CSCC[C@H](NC(=O)[C@H](CC(C)C)NC(=O)CNC(=O)[C@H](Cc1ccccc1)N(C)C(=O)[C@H](Cc1ccccc1)NC(=O)[C@H](CCCCN)NC(=O)[C@H](CC(=O)O)NC(=O)[C@H](Cc1cnc[nH]1)NC(=O)[C@H](CCSC)NC(=O)[C@@H](N)CC(=O)O)C(N)=O (HELM PEPTIDE1{D.M.H.D.K.F.[meF].G.L.M.[am]}$$$$V2.0)	0.026 nM	40%	35%	11 nM
CSCC[C@H](NC(=O)[C@H](CC(C)C)NC(=O)CNC(=O)[C@H](Cc1ccccc1)N(C)C(=O)[C@H](Cc1ccccc1)NC(=O)[C@H](CC(=O)O)NC(=O)[C@H](CC(=O)O)NC(=O)CNC(=O)[C@@H](NC(=O)[C@@H](N)CC(=O)O)[C@@H](C)O)C(N)=O (HELM PEPTIDE1{D.T.G.D.D.F.[meF].G.L.M.[am]}$$$$V2.0)	0.11 nM	< 10%	< 10%	81 nM
CSCC[C@H](NC(=O)[C@H](CC(C)C)NC(=O)CNC(=O)[C@H](Cc1ccccc1)N(C)C(=O)[C@H](Cc1ccccc1)NC(=O)[C@H](CC(=O)O)NC(=O)[C@H](CC(=O)O)NC(=O)[C@@H]1CCCN1C(=O)[C@H](CC(N)=O)NC(=O)[C@@H]1CCCN1C(=O)[C@@H]1CCC(=O)N1)C(N)=O (HELM PEPTIDE1{[Glp].P.N.P.D.D.F.[meF].G.L.M.[am]}$$$$V2.0)	0.083 nM	< 10%	< 10%	19 nM
H-DVPKSDDFVGLM-NH2	0.47 nM	53%	74%	89 nM
CSCC[C@H](NC(=O)[C@H](CC(C)C)NC(=O)CNC(=O)[C@@H](NC(=O)[C@H](Cc1ccccc1)NC(=O)[C@H](CCC(N)=O)NC(=O)[C@H](CC(=O)O)NC(=O)[C@H](CO)NC(=O)[C@H](CCCCN)NC(=O)[C@@H]1CCCN1C(=O)[C@@H](NC(=O)[C@@H](N)CC(=O)O)C(C)C)C(C)C)C(N)=O [KASSININ]	0.21 nM			100 nM
CSCC[C@H](NC(=O)[C@H](CC(C)C)NC(=O)CNC(=O)[C@H](Cc1ccccc1)N(C)C(=O)[C@H](Cc1ccccc1)NC(=O)[C@H](CC(=O)O)NC(=O)[C@H](CC(=O)O)NC(=O)[C@@H]1CCCN1C(=O)[C@H](CCCNC(=N)N)NC(=O)[C@@H]1CCCN1C(=O)[C@@H](N)CCCCN)C(N)=O (HELM PEPTIDE1{K.P.R.P.D.D.F.[meF].G.L.M.[am]}$$$$V2.0)		26%	< 10%	
CC[C@H](C)[C@H](NC(=O)[C@H](Cc1ccccc1)NC(=O)[C@H](C)NC(=O)[C@H](CC(=O)O)NC(=O)[C@H](CCCCN)NC(=O)[C@H](CO)NC(=O)[C@@H]1CCCN1C(=O)[C@@H]1CCC(=O)N1)C(=O)NCC(=O)N[C@@H](CC(C)C)C(=O)N[C@@H](CCSC)C(N)=O [ELEDOISIN] (HELM PEPTIDE1{[Glp].P.S.K.D.A.F.I.G.L.M.[am]}$$$$V2.0)		100%	95%	96 nM
H-KPRPDQFYGLM-NH2		101%	95%	
CSCC[C@H](NC(=O)[C@H](CC(C)C)NC(=O)CNC(=O)[C@H](Cc1ccc(O)cc1)NC(=O)[C@H](Cc1ccccc1)NC(=O)[C@H](CCCCN)NC(=O)[C@H](CC(N)=O)NC(=O)[C@@H]1CCCN1C(=O)[C@H](CC(=O)O)NC(=O)[C@H](C)NC(=O)[C@@H]1CCC(=O)N1)C(N)=O [PHYSALAEMIN]	3.36 nM			1550 nM
H-KPRPDQFYGLM-NH2 [BUFOKININ]	10.7 nM			2990 nM

Further compounds by falling IC50 [4], results first:

EC50 [1]	inhibition [2]	inhibition [3]	IC50 [4]	Compound
0.024 nM	< 10%	< 10%	7.5 nM	CSCC[C@H](NC(=O)[C@H](CC(C)C)NC(=O)CNC(=O)[C@H](Cc1ccccc1)N(C)C(=O)[C@H](Cc1ccccc1)NC(=O)[C@H](CCC(=O)O)NC(=O)[C@H](CC(=O)O)NC(=O)[C@H](Cc1cnc[nH]1)NC(=O)[C@H](CCSC)NC(=O)[C@@H](N)CC(=O)O)C(N)=O (HELM PEPTIDE1{D.M.H.D.E.F.[meF].G.L.M.[am]}$$$$V2.0)
0.078 nM	< 10%	< 10%	5.5 nM	CSCC[C@H](NC(=O)[C@H](CC(C)C)NC(=O)CNC(=O)[C@H](Cc1ccccc1)N(C)C(=O)[C@H](Cc1ccccc1)NC(=O)[C@H](CC(=O)O)NC(=O)[C@H](CC(=O)O)NC(=O)[C@H](CCCCN)NC(=O)[C@H](CO)NC(=O)[C@@H]1CCCN1C(=O)[C@@H]1CCC(=O)N1)C(N)=O (HELM PEPTIDE1{[Glp].P.S.K.D.D.F.[meF].G.L.M.[am]}$$$$V2.0)
0.046 nM	< 10%	19%	4.3 nM	CSCC[C@H](NC(=O)[C@H](CC(C)C)NC(=O)CNC(=O)[C@H](Cc1ccccc1)N(C)C(=O)[C@H](Cc1ccccc1)NC(=O)[C@@H](NC(=O)[C@H](CC(=O)O)NC(=O)[C@H](Cc1cnc[nH]1)NC(=O)[C@H](CCSC)NC(=O)[C@@H](N)CC(=O)O)[C@@H](C)O)C(N)=O (HELM PEPTIDE1{D.M.H.D.T.F.[meF].G.L.M.[am]}$$$$V2.0)
0.04 nM	< 10%	31%	3.6 nM	CSCC[C@H](NC(=O)[C@H](CC(C)C)NC(=O)CNC(=O)[C@H](Cc1ccccc1)N(C)C(=O)[C@H](Cc1ccccc1)NC(=O)[C@H](CO)NC(=O)[C@H](CC(=O)O)NC(=O)[C@H](Cc1cnc[nH]1)NC(=O)[C@H](CCSC)NC(=O)[C@@H](N)CC(=O)O)C(N)=O (HELM PEPTIDE1{D.M.H.D.S.F.[meF].G.L.M.[am]}$$$$V2.0)
0.08 nM			2.5 nM	CSCC[C@H](NC(=O)[C@H](CC(C)C)NC(=O)CNC(=O)[C@H](Cc1ccccc1)N(C)C(=O)[C@H](Cc1ccccc1)NC(=O)[C@H](CCCN=C(N)N)NC(=O)[C@H](CC(=O)O)NC(=O)[C@H](Cc1cnc[nH]1)NC(=O)[C@H](CCSC)NC(=O)[C@@H](N)CC(=O)O)C(N)=O (HELM PEPTIDE1{D.M.H.D.R.F.[meF].G.L.M.[am]}$$$$V2.0)
0.065 nM	< 10%	29%	1.5 nM	CSCC[C@H](NC(=O)[C@H](CC(C)C)NC(=O)CNC(=O)[C@H](Cc1ccccc1)N(C)C(=O)[C@H](Cc1ccccc1)NC(=O)[C@@H](NC(=O)[C@H](CC(=O)O)NC(=O)[C@H](Cc1cnc[nH]1)NC(=O)[C@H](CCSC)NC(=O)[C@@H](N)CC(=O)O)C(C)C)C(N)=O (HELM PEPTIDE1{D.M.H.D.V.F.[meF].G.L.M.[am]}$$$$V2.0)
